# Biological target: T1, rat NaPi-2b (Rattus norvegicus, UniProt Q9JJ09)
# T1 construct: expressed in transfected cells; host or cells: Xenopus oocytes injected with cRNA
# T1 sequence (Q9JJ09 1-695): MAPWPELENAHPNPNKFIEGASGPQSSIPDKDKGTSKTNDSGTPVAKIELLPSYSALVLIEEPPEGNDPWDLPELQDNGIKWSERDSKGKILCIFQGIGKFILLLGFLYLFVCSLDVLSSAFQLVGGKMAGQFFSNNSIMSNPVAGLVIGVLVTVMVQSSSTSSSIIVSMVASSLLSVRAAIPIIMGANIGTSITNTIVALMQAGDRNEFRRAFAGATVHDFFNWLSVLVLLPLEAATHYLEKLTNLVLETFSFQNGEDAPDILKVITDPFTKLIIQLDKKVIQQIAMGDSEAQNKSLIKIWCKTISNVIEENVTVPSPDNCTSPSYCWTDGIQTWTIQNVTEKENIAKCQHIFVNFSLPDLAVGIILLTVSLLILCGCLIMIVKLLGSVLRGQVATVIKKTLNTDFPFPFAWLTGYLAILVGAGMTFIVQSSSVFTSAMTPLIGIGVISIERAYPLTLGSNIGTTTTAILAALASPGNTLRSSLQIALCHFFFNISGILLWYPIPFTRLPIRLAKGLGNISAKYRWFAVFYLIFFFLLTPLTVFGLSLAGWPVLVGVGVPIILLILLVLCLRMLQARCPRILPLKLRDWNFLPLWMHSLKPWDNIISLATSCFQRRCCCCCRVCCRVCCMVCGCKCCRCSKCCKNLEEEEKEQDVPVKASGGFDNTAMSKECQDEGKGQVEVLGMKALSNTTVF
# Test: Sodium-dependent phosphate uptake of Xenopus oocytes which expressed NaPi-2b (32P)
# Type: cell-based
# Conditions: Xenopus oocytes expressing rat NaPi-2b, 32P radioactive phosphorus; read-out: IC50 (phosphate uptake inhibitory activity)
# Procedure, shortened: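 Percent inhibition at 300 μM and 100 μM comes from the same inhibition curve of 32P uptake. Assay used oocytes expressing rat NaPi-2b after 2 days of culture.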
row,SMILES,IC50 [µM]
1,"COc1ccc(C(=O)Nc2ccccc2C(=O)N/N=C/c2cccc(O)c2)cc1OC [Compound 18, N-[2-(3-Hydroxy-benzylidene-hydrazinocarbonyl)-phenyl]-3,4-dimethoxy-benzamide]",4.03
2,"COc1ccc(C(=O)Nc2ccc(Cl)cc2C(=O)N/N=C/c2cccc(F)c2)cc1OC [Compound 65, N-[4-Chloro-2-(3-fluoro-benzylidene-hydrazinocarbonyl)-phenyl]-3,4-dimethoxy-benzamide]",1.29
3,"Cc1ccc(/C=N/NC(=O)c2cc(Br)ccc2NC(=O)c2ccc(CN3CCN(CC(=O)N4CCOCC4)CC3)cc2)cc1C [Compound 305, N-[4-Bromo-2-(3,4-dimethyl-benzylidene-hydrazinocarbonyl)-phenyl]-4-[4-(2-morpholin-4-yl-2-oxo-ethyl)-piperazin-1-ylmethyl]-benzamide]",2.47
4,"COc1ccc(C(=O)Nc2ccccc2C(=O)N/N=C/c2ccc(C)c(C)c2)cc1 [Compound 94, N-[2-(3,4-Dimethyl-benzylidene-hydrazinocarbonyl)-phenyl]-4-methoxy-benzamide]",5.63
5,"CC(O)CN(Cc1cccc(C(=O)Nc2cscc2C(=O)N/N=C/c2cccc(F)c2)c1)CC(C)O (stereo not drawn) [Compound 974, 3-{[Bis-(2-hydroxy-propyl)-amino]-methyl}-N-[4-(3-fluoro-benzylidene-hydrazinocarbonyl)-thiophen-3-yl]-benzamide]",12.6
6,"COc1ccc(C(=O)Nc2cc(Cl)ccc2C(=O)N/N=C/c2cccc(C)c2)cc1OC [Compound 73, N-[5-Chloro-2-(3-methyl-benzylidene-hydrazinocarbonyl)-phenyl]-3,4-dimethoxy-benzamide]",1.75
7,"O=C(O)CCSCc1cccc(C(=O)Nc2ccc(N3CCCCC3)cc2C(=O)N/N=C/c2ccc(F)cc2)c1 [Compound 888, 3-{3-[2-(4-Fluoro-benzylidene-hydrazinocarbonyl)-4-piperidin-1-yl-phenylcarbamoyl]-benzylsulfanyl}-propionic acid]",2.55
8,"COc1ccc(C(=O)Nc2ccccc2C(=O)N/N=C/c2cccc([N+](=O)[O-])c2)cc1OC [Compound 103, 3,4-Dimethoxy-N-[2-(3-nitro-benzylidene-hydrazinocarbonyl)-phenyl]-benzamide]",5.73
9,"Cc1ccc(/C=N/NC(=O)c2cc(N3CCCC3)ccc2NC(=O)c2cccc(CSCCO)c2)cc1C [Compound 919, N-[2-(3,4-Dimethyl-benzylidene-hydrazinocarbonyl)-4-pyrrolidin-1-yl-phenyl]-3-(2-hydroxy-ethylsulfanylmethyl)-benzamide]",0.31
10,"COc1ccc(/C=N/NC(=O)c2cc(OCCCN3CCCCC3)ccc2NC(=O)c2cccc(CSCCO)c2)cc1 [Compound 1040, 3-(2-Hydroxy-ethylsulfanylmethyl)-N-[2-(4-methoxy-benzylidene-hydrazinocarbonyl)-4-(3-piperidin-1-yl-propoxy)-phenyl]-benzamide]",52.2
11,"COc1ccc(C(=O)Nc2ccccc2C(=O)N/N=C/c2ccccc2)cc1OC [Compound 17, N-[2-(Benzylidene-hydrazinocarbonyl)-phenyl]-3,4-dimethoxy-benzamide]",3.59
12,"CCN(CC)CCN(CCN(CC)CC)Cc1cccc(C(=O)Nc2sc3c(c2C(=O)N/N=C/c2ccc(OC)cc2)CCCC3)c1 [Compound 850, 3-{[Bis-(2-diethylamino-ethyl)-amino]-methyl}-N-[3-(4-methoxy-benzylidene-hydrazinocarbonyl)-4,5,6,7-tetrahydro-benzo[b]-thiophen-2-yl]-benzamide]",3.1
13,"COc1ccc(C(=O)Nc2ccccc2C(=O)N/N=C/c2cccnc2)cc1 [Compound 112, 4-Methoxy-N-[2-(pyridin-3-ylmethylene-hydrazinocarbonyl)-phenyl]-benzamide]",42
14,"COc1cccc(/C=N/NC(=O)c2cc(I)ccc2NC(=O)c2cccc(CN3CCC(N4CCCCC4)CC3)c2)c1 [Compound 488, 3-[1,4′]Bipiperidinyl-1′-ylmethyl-N-[4-iodo-2-(3-methoxy-benzylidene-hydrazinocarbonyl)-phenyl]-benzamide]",< 3
15,"O=C(Nc1ccccc1C(=O)N/N=C/c1ccc(F)cc1)c1ccc(F)cc1 [Compound 77, 4-Fluoro-N-[2-(4-fluoro-benzylidene-hydrazinocarbonyl)-phenyl]-benzamide]",3.01
16,"Cc1csc(NC(=O)c2cccc(CN3CCN(CCO)CC3)c2)c1C(=O)N/N=C/c1cccc(F)c1 [Compound 578, N-[3-(3-Fluoro-benzylidene-hydrazinocarbonyl)-4-methyl-thiophen-2-yl]-3-[4-(2-hydroxy-ethyl)-piperazin-1-ylmethyl]-benzamide]",< 3
17,"O=C(Nc1ccccc1C(=O)N/N=C/c1cccc(F)c1)c1cccnc1 [Compound 129, N-[2-(3-Fluoro-benzylidene-hydrazinocarbonyl)-phenyl]-nicotinamide]",13.7
18,"Cc1ccc(/C=N/NC(=O)c2cc(Cl)ccc2NC(=O)c2cccc(CSCc3ccco3)c2)cc1 [Compound 682, N-[4-Chloro-2-(4-methyl-benzylidene-hydrazinocarbonyl)-phenyl]-3-(furan-2-ylmethylsulfanylmethyl)-benzamide]",12.5
19,"O=C(Nc1ccc(Cl)cc1C(=O)N/N=C/c1ccc(O)cc1)c1cccc(CN(CCO)CCO)c1 [Compound 411, 3-{[Bis-(2-hydroxy-ethyl)-amino]-methyl}-N-[4-chloro-2-(4-hydroxy-benzylidene-hydrazinocarbonyl)-phenyl]-benzamide]",10.1
20,"C=CCOc1ccc(/C=N/NC(=O)c2ccccc2NC(=O)c2ccc(OC)c(OC)c2)cc1 [Compound 52, N-[2-(4-Allyloxy-benzylidene-hydrazinocarbonyl)-phenyl]-3,4-dimethoxy-benzamide]",10.4
21,"CCN(CC)CCN(C)Cc1cccc(C(=O)Nc2ccc(OCCCCF)cc2C(=O)N/N=C/c2cccc(F)c2)c1 [Compound 1057, 3-{[(2-Diethylamino-ethyl)-methyl-amino]-methyl}-N-[2-(3-fluoro-benzylidene-hydrazinocarbonyl)-4-(4-fluoro-butoxy)-phenyl]-benzamide]",1.26

# Same assay, conditions: phosphate uptake, oocytes expressing rat NaPi-2b; 300 μM, determined from inhibition curve
row,SMILES,inhibition at 300 µM [%]
1,"CN(CCCN(C)Cc1cccc(C(=O)Nc2ccc(Cl)cc2C(=O)N/N=C/c2ccc(F)cc2)c1)Cc1cccc(C(=O)Nc2ccc(Cl)cc2C(=O)N/N=C/c2ccc(F)cc2)c1 [Compound 701, N1-[4-Chloro-2-({2-[(E)-1-(4-fluorophenyl)methylidene]-hydrazino}carbonyl}phenyl}-3-{[{3-[(3-{[4-chloro-2-([2-[(E)-1-(4-fluorophenyl)methylidene]hydrazino}carbonyl}anilino}carbonyl}benzyl}-(methyl)amino)propyl)(methyl)amino]methyl]benzamide]",54
2,"Cc1ccc(/C=N/NC(=O)c2scc(C)c2NC(=O)c2cccc(CN(CC(C)O)CC(C)O)c2)cc1 (stereo not drawn) [Compound 540, 3-{[Bis-(2-hydroxy-propyl)-amino]-methyl}-N-[4-methyl-2-(4-methyl-benzylidene-hydrazinocarbonyl)-thiophen-3-yl]-benzamide]",38.4
3,"Cc1csc(C(=O)N/N=C/c2ccc(F)cc2)c1NC(=O)c1cccc(CN2CCN(CCO)CC2)c1 [Compound 534, N-[2-(4-Fluoro-benzylidene-hydrazinocarbonyl)-4-methyl-thiophen-3-yl]-3-[4-(2-hydroxy-ethyl)-piperazin-1-ylmethyl]-benzamide]",43.8

# — US8134015B2, “Compound inhibiting in vivo phosphorous transport and medicine containing the same” (Kyowa Hakko Kirin Co., Ltd., priority 2003, dated 2012)
